Experimental data as given in US10759762B2, “Fluorescent synthetic retinoids” (High Force Research Limited, priority 2014, dated 2020).

Tests used:
[1] = Stability on exposure to light of wavelength 300 to 400 nm; type: physicochemical; conditions: 3 days exposure to light of wavelength 300 to 400 nm
From the text: Retinoid compounds such as ATRA are unstable upon storage. In particular, such compounds are susceptible to photoisomerisation and degradation upon exposure to light in the 300 to 400 nm region. […] Generally the compounds of formula 1 have far better stability than retinoids such as ATRA, in particular the compounds of formula 1 are far less susceptible to photoisomerisation. Generally, following 3 days exposure to light having a wavelength of 300 to 400 nm, the compounds of the present invention undergo far less isomerisation and degradation than ATRA. Typically at least 60% by weight of the compounds of the present invention remain (compared to less than 40% by weight ATRA) following 3 days exposure to light of wavelength 300 to 400 nm.

TERA-2 cells [2] = assay: Immunocytochemical staining for nestin; type: cell-based
TERA-2 cells [3] = assay: Immunocytochemical staining for cytokeratin 8 (CK8); type: cell-based; conditions: 10 μM vs 1 μM
TERA-2 cells [4] = assay: Immunocytochemical staining for TUJ-1; type: cell-based; conditions: for TUJ-1 staining: 1 and 10 μM
From the text: DMSO treated cells show only limited TUJ-1 staining.

TERA-2 cells [5] = assay: Immunocytochemical staining for Oct 4; type: cell-based
TERA-2 cells [6] = assay: Immunocytochemical staining for Sox 2; type: cell-based; conditions: 1 and 10 μM
TERA-2 cells [7] = assay: Flow cytometry, stem cell marker SSEA-3; type: cell-based; conditions: for expression of SSEA-3 compared to DMSO treated cells: flow cytometry
TERA-2 cells [8] = assay: Flow cytometry, stem cell marker TRA160; type: cell-based; conditions: for expression of TRA160 compared to DMSO treated cells: flow cytometry
TERA-2 cells [9] = assay: Flow cytometry, early neuronal marker A2B5; type: cell-based
From the text: ATRA treated cells express higher levels of A2B5 followed by EC23® and compound 9.

cell populations = assay: Phase contrast images of treated cell populations; type: cell-based
From the text: In cell populations treated with DMSO, the cells are small, and densely packed together.

cells = assay: MTT cell viability analysis; type: cell-based; conditions: compared to DMSO
[10] = background statement; cited from earlier work
[11] = background statement; cited from earlier work; remark: listed apart in the source
[12] = Light stability of compound 9 by 1H NMR under standard laboratory light; type: physicochemical
Protocol: A ^1H NMR spectrum of compound 9 in DMSO-d6 was recorded after storage at ambient temperature in the absence of light (FIG. 7). The same sample of compound 9 was then exposed to standard laboratory light at a distance of 30 cm for 72 hours, and the ^1H NMR spectrum recorded (FIG. 8). Compound 9 is stable towards typical laboratory lighting over this time period, although a small proportion converts to a structurally similar enamine form. Compound 9 remains stable until around 16 day's exposure, where some indication of degradation becomes apparent. More significant degradation is observed after 22 day's exposure, although compound 9 still represents the major constituent of the sample (>60%).

[13] = Initial fluorescence characterisation (absorption and emission spectra in solvents); type: physicochemical
From the text: Absorption and emission spectra of 9 were obtained in a variety of solvents (FIG. 3 and FIG. 4). […] The fluorescence emission wavelength is also highly dependent on solvent polarity, with a significant red shift occurring in polar solvents when compared to non polar solvents.
This absorption band peaks at around 379 nm, and trails into the indigo/blue (440 nm).

[14] = 1 M treatment (so in the source)
[15] = both 1 and 10 M treatments (so in the source)

| Compound | nestin staining (TERA-2 cells [2]; 10 μM treatment) | nestin staining (TERA-2 cells [2]; [14]) | CK8 staining intensity in 10 μM samples compared with 1 μM samples (TERA-2 cells [3]) | TUJ-1 staining with 10 μM treatment relative to 1 μM (TERA-2 cells [4]) | TUJ-1 staining (TERA-2 cells [4]) | Oct 4 staining (TERA-2 cells [5]; 1 μM) | Oct 4 staining (TERA-2 cells [5]; 10 μM) | Sox 2 staining compared to DMSO treated cells (TERA-2 cells [6]) | expression of SSEA-3 compared to DMSO treated cells (TERA-2 cells [7]) | expression of TRA160 compared to DMSO treated cells (TERA-2 cells [8]) | expression of A2B5 compared to DMSO treated cells (TERA-2 cells [9]) | cell population appearance in contrast to DMSO (small, densely packed) (cell populations) | MTT cell viability (cells; 1 μM treatment) | MTT cell viability (cells; 10 μM treatment) | stability on exposure to light [10] | other results |
| --- | --- | --- | --- | --- | --- | --- | --- | --- | --- | --- | --- | --- | --- | --- | --- | --- |
| CC1=C(/C=C/C(C)=C/C=C/C(C)=C/C(=O)O)C(C)(C)CCC1 [ATRA, All Trans-Retinoic Acid] | positive for nestin | positive for nestin | less intense | increased staining | significant staining | staining is also evident | do not exhibit staining | significantly reduced staining | significantly decreased | significantly decreased | significantly increased | less dense, and cells are much more spread out | comparable viability to DMSO | comparable viability to DMSO | poor stability | amount of compound remaining [1]: less than 40 % by weight; level of A2B5 relative to the other retinoids (TERA-2 cells [9]): higher levels |
| CC1(C)CCC(C)(C)c2cc(C#Cc3ccc(C(=O)O)cc3)ccc21 [EC23®] | positive for nestin with staining possibly to a lesser extent | positive for nestin | less intense | increased staining | significant staining | do not exhibit staining | do not exhibit staining | significantly reduced staining | significantly decreased | significantly decreased | significantly increased | less dense, and cells are much more spread out | comparable viability to DMSO | comparable viability to DMSO | good stability | susceptibility to metabolic degradation [11]: not be susceptible |
| CC(C)N1CCC(C)(C)c2cc(C#Cc3ccc(C(=O)O)cc3)ccc21 [compound 9, 4-2-[4,4-Dimethyl-1-(propan-2-yl)-1,2,3,4-tetrahydroquinolin-6-yl]ethynylbenzoic acid] | positive for nestin with staining possibly to a lesser extent | positive for nestin | slightly brighter | increased staining | significant staining | do not exhibit staining | do not exhibit staining | significantly reduced staining | significantly decreased | significantly decreased | significantly increased | less dense, and cells are much more spread out | comparable viability to DMSO | comparable viability to DMSO |  | exposure time until which compound remains stable (first indication of degradation) ([12]; DMSO-d6, standard laboratory light): around 16 day; stability towards typical laboratory lighting ([12]; DMSO-d6, standard laboratory light at 30 cm, 72 hours, ambient temperature): stable; share of the sample still compound 9 (major constituent) ([12]; after 22 day's exposure to laboratory light): > 60%; level of SSEA-3 relative to ATRA and EC23 (TERA-2 cells [7]; [15]): higher levels; level of TRA160 relative to ATRA and EC23 (TERA-2 cells [8]; [15]): slightly higher levels; lowest concentration at which fluorescence was easily detected ([13]; in solvents): 1 nM |
| CC1=CC(C)(C)c2cc(C#Cc3ccc(C(=O)O)cc3)ccc2N1C(C)C [compound 17, 4-2-[2,4,4-Trimethyl-1-(propan-2-yl)-1,4-dihydroquinolin-6-yl]ethynyl benzoic acid] |  |  |  |  |  |  |  |  |  |  |  |  |  |  |  | peak of maximal absorption band ([13]; chloroform (FIG. 5)): around 379 nm |
